Our source for the % of inhibition, % of control and % binding values is ChEMBL document CHEMBL5465560, “Selectivity Literature for EUbOPEN Chemogenomic Library” (2024).

Molecules are shown by their SMILES.

Test [1] concerns the target Activin receptor type-2A (Homo sapiens) (UniProt P27037). Briefly: Selectivity interaction (LanthaScreen Eu Kinase Binding Assay) EUB0001632a ACVR2A. Conditions: at 10 µM.
For test [2], the target named is T1, Aurora kinase C (Homo sapiens) (UniProt Q9UQB9).
T1 sequence (whole entry): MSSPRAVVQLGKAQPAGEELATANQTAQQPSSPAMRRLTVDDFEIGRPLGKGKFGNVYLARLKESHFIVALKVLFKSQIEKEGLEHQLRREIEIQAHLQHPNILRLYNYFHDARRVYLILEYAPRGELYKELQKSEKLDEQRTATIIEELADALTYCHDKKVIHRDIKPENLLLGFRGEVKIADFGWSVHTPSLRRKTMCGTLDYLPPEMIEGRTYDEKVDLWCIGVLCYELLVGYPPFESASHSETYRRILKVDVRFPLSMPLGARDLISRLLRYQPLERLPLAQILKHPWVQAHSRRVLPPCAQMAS
Briefly: Selectivity interaction (Kinase panel (Z-LYTE Assay)) EUB0001632a AURKC. The settings on record: at 10 µM.

The target in test [3] is Casein kinase I isoform delta (Homo sapiens, UniProt P48730). Briefly: Selectivity interaction (Ambit KINOMEscan and KiNATiv profiling in Jurkat cells) EUB0000090b CSNK1D. Type of test: cell-based. The settings on record: at 1 µM.
In test [4] the target is T2, Atypical kinase COQ8B, mitochondrial (Homo sapiens) (UniProt Q96D53).
T2 sequence (whole entry): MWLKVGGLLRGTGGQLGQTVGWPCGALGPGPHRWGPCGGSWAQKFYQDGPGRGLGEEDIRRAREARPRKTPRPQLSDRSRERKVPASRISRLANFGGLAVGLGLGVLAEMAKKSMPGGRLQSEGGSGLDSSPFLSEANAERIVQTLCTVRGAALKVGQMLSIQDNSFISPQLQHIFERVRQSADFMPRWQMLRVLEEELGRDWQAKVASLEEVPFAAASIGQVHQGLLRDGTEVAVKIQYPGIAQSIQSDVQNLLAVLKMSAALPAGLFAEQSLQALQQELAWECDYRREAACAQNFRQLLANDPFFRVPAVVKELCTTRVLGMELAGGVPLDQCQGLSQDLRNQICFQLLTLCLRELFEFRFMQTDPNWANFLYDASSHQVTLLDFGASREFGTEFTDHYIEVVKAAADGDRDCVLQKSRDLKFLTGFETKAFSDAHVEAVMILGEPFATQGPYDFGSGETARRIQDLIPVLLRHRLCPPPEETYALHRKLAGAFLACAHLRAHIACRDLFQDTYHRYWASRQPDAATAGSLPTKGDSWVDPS
The settings on record: at 10 µM.

The target of test [5] is Receptor tyrosine-protein kinase erbB-2 (Homo sapiens, UniProt P04626). Briefly: Selectivity interaction (KinomeScan (DiscoverX)) EUB0000666a ERBB2. Conditions: at 10 µM.
For test [6], the target named is Serine/threonine-protein kinase 35 (Homo sapiens) (UniProt Q8TDR2). Briefly: Selectivity interaction (KinomeScan (DiscoverX)) EUB0000229b STK35. The settings on record: at 10 µM.
For test [7], the target named is Tyrosine-protein kinase ABL1 (Homo sapiens, UniProt P00519). Briefly: Selectivity interaction (KinomeScan (DiscoverX)) EUB0000655a ABL1. The settings on record: at 10 µM.
Test [8] addresses Ribosomal protein S6 kinase alpha-3 (Homo sapiens, UniProt P51812). Briefly: Selectivity interaction (KinomeScan (DiscoverX)) EUB0000655a RPS6KA3. The settings on record: at 10 µM.
Test [9] has as its target eIF-2-alpha kinase GCN2 (Homo sapiens) (UniProt Q9P2K8). Briefly: Selectivity interaction (ActivX KiNativ screen (kinase selectivity in THP-1 cell lysates)) EUB0000639a EIF2AK4. The test is classed as subcellular. Conditions: lysate.
For test [10], the target named is T3, Serine/threonine-protein kinase TAO3 (Homo sapiens) (UniProt Q9H2K8).
T3 sequence (whole entry): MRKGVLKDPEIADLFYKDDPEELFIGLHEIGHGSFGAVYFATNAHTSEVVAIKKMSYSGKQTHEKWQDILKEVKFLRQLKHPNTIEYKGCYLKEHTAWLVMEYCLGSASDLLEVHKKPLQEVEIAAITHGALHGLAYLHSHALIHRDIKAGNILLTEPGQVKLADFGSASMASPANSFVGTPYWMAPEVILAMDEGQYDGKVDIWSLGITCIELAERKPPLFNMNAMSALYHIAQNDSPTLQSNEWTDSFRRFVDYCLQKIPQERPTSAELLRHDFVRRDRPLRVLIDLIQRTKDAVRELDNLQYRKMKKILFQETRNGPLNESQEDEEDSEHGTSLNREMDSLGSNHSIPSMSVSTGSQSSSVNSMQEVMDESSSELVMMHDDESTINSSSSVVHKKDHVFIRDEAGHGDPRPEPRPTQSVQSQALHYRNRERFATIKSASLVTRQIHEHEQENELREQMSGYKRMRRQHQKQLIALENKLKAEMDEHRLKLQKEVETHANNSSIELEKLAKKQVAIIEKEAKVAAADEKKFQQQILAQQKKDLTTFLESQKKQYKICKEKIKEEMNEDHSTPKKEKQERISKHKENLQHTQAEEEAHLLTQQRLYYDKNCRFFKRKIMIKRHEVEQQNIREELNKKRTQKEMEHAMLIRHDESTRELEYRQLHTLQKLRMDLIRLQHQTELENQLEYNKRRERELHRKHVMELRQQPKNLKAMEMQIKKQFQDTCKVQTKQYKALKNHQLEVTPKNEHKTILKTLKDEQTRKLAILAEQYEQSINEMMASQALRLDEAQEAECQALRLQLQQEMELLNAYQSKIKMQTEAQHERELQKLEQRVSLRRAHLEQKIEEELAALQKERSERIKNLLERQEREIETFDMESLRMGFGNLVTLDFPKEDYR
Briefly: Selectivity interaction (ActivX KiNativ screen (kinase selectivity in THP-1 cell lysates)) EUB0000639a TAOK3. The test is classed as subcellular. The settings on record: lysate.

Chain of eIF-2-alpha kinase GCN2 (Homo sapiens) (Q9P2K8 whole entry): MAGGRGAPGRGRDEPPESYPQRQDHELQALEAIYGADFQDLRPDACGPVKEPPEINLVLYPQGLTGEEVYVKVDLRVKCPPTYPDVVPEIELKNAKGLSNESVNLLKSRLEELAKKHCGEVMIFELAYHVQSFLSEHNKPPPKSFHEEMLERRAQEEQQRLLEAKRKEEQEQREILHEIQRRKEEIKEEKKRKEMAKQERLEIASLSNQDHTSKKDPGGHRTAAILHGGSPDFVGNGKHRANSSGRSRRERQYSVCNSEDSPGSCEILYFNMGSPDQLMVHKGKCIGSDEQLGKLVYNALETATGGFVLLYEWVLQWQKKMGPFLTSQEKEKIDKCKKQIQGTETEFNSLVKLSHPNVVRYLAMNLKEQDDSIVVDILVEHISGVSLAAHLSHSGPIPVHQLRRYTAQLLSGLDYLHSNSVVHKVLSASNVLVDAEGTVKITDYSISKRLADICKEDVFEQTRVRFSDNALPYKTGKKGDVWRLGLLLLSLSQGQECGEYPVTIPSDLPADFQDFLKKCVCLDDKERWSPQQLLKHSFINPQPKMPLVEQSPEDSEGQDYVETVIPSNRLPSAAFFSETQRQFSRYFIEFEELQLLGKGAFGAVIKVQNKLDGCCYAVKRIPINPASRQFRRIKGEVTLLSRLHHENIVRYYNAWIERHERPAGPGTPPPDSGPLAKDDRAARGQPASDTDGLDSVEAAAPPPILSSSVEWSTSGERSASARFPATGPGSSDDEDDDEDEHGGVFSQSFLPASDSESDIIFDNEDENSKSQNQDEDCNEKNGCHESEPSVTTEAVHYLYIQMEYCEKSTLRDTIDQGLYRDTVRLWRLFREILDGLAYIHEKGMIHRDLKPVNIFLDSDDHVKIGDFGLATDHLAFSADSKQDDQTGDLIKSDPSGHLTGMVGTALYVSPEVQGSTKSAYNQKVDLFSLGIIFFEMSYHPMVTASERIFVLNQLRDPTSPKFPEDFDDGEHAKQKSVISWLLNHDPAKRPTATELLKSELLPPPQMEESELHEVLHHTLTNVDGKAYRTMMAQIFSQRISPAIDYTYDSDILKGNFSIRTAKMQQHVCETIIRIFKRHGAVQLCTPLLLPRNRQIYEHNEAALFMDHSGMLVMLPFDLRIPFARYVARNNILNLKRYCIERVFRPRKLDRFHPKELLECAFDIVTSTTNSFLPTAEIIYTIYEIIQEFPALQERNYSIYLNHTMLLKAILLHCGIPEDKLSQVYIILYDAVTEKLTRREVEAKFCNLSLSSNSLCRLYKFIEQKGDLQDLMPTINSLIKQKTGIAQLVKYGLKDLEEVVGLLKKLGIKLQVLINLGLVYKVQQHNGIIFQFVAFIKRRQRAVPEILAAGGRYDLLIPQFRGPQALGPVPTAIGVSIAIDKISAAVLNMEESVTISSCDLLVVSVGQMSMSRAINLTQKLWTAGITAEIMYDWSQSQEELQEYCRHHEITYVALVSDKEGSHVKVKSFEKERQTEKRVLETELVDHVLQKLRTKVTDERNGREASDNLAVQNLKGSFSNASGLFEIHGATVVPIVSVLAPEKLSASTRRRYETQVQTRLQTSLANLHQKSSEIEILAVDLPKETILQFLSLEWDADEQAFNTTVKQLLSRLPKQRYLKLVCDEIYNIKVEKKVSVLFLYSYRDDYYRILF
Chain of Ribosomal protein S6 kinase alpha-3 (P51812 whole entry): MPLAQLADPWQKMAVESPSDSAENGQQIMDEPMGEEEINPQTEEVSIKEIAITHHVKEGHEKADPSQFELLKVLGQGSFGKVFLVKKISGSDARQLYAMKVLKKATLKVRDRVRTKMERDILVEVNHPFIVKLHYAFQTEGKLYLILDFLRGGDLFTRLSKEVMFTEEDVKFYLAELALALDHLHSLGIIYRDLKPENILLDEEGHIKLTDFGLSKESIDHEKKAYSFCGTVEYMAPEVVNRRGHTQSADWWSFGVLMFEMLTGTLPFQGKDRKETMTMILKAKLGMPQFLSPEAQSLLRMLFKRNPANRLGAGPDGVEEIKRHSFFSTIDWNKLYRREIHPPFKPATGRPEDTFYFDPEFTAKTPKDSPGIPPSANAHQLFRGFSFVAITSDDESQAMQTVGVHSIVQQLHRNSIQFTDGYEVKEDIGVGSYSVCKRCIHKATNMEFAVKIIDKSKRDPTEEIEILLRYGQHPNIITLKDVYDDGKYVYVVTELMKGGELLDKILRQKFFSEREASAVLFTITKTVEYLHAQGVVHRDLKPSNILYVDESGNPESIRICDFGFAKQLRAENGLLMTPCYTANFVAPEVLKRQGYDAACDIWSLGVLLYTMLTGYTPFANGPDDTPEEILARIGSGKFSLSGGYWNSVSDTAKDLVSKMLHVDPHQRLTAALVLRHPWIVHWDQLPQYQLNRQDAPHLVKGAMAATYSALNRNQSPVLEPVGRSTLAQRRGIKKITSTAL
Chain of Casein kinase I isoform delta (P48730 whole entry, looked up, canonical isoform): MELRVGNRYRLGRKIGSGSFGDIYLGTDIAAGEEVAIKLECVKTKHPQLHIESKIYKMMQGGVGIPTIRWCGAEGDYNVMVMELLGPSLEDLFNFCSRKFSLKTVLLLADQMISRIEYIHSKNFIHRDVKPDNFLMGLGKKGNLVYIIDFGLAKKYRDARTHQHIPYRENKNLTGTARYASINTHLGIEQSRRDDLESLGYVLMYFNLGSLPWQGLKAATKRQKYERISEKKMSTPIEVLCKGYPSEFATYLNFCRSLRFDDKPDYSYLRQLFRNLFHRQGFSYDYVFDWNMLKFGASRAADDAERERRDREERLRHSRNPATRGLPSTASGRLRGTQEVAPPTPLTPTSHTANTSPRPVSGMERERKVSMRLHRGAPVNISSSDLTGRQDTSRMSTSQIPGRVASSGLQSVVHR
Chain of Serine/threonine-protein kinase 35 (Homo sapiens) (Q8TDR2 whole entry): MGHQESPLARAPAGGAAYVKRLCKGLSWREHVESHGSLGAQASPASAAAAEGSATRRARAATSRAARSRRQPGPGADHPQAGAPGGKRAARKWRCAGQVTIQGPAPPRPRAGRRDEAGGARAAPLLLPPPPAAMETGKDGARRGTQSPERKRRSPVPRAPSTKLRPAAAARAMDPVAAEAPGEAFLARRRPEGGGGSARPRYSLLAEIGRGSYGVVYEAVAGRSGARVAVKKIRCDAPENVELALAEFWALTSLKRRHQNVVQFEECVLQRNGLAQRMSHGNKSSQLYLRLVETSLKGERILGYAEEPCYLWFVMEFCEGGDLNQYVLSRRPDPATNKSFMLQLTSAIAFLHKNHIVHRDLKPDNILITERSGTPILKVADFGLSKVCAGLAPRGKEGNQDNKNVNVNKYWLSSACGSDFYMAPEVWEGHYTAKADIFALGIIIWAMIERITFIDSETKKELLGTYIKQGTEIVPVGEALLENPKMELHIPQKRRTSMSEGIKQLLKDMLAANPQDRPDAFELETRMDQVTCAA
Chain of Receptor tyrosine-protein kinase erbB-2 (P04626 whole entry): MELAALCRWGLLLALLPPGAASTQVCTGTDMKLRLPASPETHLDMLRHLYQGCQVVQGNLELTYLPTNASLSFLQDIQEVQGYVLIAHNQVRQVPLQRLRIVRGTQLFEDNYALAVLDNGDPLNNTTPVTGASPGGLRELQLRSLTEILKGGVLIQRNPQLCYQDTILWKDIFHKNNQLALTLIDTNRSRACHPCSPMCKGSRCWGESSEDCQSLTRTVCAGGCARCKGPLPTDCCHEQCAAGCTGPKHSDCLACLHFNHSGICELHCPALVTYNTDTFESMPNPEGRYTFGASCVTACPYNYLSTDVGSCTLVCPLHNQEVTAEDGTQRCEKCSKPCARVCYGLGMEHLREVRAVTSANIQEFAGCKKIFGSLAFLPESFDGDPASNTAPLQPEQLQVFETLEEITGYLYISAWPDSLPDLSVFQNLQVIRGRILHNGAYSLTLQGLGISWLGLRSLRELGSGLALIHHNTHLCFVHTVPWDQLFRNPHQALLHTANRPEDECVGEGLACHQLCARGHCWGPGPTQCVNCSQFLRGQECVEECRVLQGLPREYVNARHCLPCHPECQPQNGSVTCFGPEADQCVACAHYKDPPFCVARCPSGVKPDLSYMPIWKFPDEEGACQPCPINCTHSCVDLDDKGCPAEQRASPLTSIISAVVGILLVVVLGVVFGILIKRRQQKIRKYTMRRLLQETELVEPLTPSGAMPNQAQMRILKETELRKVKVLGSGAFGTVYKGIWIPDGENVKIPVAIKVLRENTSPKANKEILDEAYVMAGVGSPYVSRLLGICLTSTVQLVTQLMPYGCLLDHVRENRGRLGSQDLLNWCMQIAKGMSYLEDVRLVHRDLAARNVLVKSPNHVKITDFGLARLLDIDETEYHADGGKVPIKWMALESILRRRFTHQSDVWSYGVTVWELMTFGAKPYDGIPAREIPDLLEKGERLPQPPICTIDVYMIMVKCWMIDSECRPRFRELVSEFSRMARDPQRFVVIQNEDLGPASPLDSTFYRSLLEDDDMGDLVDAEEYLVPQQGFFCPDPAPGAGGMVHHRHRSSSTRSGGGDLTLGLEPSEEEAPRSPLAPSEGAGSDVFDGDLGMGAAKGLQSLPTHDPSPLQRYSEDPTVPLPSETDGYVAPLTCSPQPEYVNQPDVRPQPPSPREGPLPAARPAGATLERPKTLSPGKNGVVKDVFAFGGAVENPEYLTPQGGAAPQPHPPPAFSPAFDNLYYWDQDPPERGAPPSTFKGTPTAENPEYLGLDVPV

`Cn1cc(-n2cnc3c(NCc4nc5cc(Cl)c(Cl)cc5[nH]4)nc(N4CCOCC4)nc32)cn1`: the % of inhibition in [1] is -39.5%. The % of control in [2] was 8.76%.

`CN(C)C/C=C/C(=O)Nc1ccc(C(=O)N2CCCC(Nc3ncc(Cl)c(-c4c[nH]c5ccccc45)n3)C2)cc1` (stereo not drawn) yielded a % of control in test [3] of 80%.

Take `Cc1cc([C@@H](C)Nc2ccccc2C(=O)O)c2nc(N3CCOCC3)cc(=O)n2c1` [AZD-6482]: the % of control in test [4] was found to be 79%.

The compound `O=C(NOC[C@H](O)CO)c1ccc(F)c(F)c1Nc1ccc(I)cc1F` displayed a % of control in test [5] of 100%.

In the case of `COc1cc(N(C)c2ccnc3ccc(C(F)(F)F)cc23)cc(OC)c1OC`, the % binding in [6] amounted to 90%.

Consider `CN(C)CCOc1ccc(-c2nc(-c3ccncc3)c(-c3ccc4c(c3)CC/C4=N\O)[nH]2)cc1`, for which the figures for the % of control in [7] and in test [8] were 6% and 67%, respectively.

Turning to `CC[C@@H]1[C@H](F)C(=O)N[C@@H]1COc1nccc2cc(C(N)=O)c(OC)cc12` [ZIMLOVISERTIB], the % of inhibition in test [9] (at 0.01 µM) is -4.6%; in test [9] (at 0.04 µM), -11.3%; in [9] (at 0.2 µM), -14.4%; in [9] (at 1 µM) it was 13.9%; in test [9] (at 5 µM), 12.4%; in test [10] (at 0.01 µM) it was 6.6%. In addition, the % of inhibition in test [10] (at 0.04 µM) is -1.6%; in [10] (at 0.2 µM) it was 6.9%; in [10] (at 1 µM), 12.9%; in [10] (at 5 µM) it was 41.7%.
